Patent US12226425B2, “Inhibitors of ARG1 and/or ARG2” (Arcus Biosciences, Inc., priority 2018, dated 2025)

Molecular target: T1, recombinant human ARG1 (Homo sapiens, UniProt P05089)
T1 sequence (P05089 1-322): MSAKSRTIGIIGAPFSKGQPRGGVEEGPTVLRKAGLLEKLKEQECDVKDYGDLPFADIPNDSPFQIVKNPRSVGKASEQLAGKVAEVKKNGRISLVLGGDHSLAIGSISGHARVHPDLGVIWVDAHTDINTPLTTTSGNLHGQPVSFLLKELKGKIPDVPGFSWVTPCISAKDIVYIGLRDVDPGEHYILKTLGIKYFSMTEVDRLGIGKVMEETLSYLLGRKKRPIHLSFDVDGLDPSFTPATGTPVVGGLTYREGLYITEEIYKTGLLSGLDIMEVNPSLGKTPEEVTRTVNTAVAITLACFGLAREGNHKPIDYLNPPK
Test: Arginase coupled enzymatic assay using recombinant human ARG1
Assay type: biochemical
Conditions: 2 nM ARG1, 0.8 mM L-Arginine, 10 mM sodium phosphate pH 7.4, 0.1 mM MnCl2, 37° C., absorption at 570 nm; read-out: hARG1 potency (IC50)
Procedure: Purified recombinant human ARG1 and ARG2 were prepared in 50 mM Bicine, pH 8.5, 100 μM MnCl2, 20% glycerol and 1mM DTT at a final stock concentration of 14.4 μM and 7.56 μM respectively. 2.5 nM of either ARG1 or ARG2 were incubated with varying concentrations of compounds in 10 mM sodium phosphate, pH 7.4, 0.1 mM MnCl2 and 2.5% DMSO in a total volume of 40 μl in a 384-well microplate (Corning™ #3640) at 37° C. for 1 h. The arginase enzymatic reaction was initiated by addition of 10 μl of 4 mM L-Arginine pre-incubated in 10 mM sodium phosphate, pH 7.4, and 0.1 mM MnCl2 at 37° C. into the enzyme and compound mixture, giving the final reaction conditions: 2 nM of ARG1 or ARG2 and 0.8 mM of L-Arginine in 10 mM sodium phosphate, pH 7.4, 0.1 mM MnCl2 and 2% DMSO with varying concentrations of compounds. Following 2 h incubation at 37° C., the arginase enzymatic reaction was stopped by transfer of 10 μl of reaction into 10 μl of detection mix (204 μM Amino-2-Borono-6-Hexanoic Acid, 0.25 μl Arginase Enzyme mix, 0.25 μl Arginase Developer, 0.25 μl Arginase Converter Enzyme in Arginase Assay Buffer from Arginase Activity Colorimetric Assay Kit, BioVision Inc. #K755-100) in a transparent 384-well microplate (Greiner #781801). The plate was immediately put into a plate reader (Synergy™ Neo2 Multi-Mode Microplate Reader) to monitor absorption at 570 nm at 37° C. Absorption values at 12˜20 min were used to calculate compound potency. The value of the DMSO blank (MIN inhibition=100% activity) was used as a negative control. The positive control was established by adding 8 μl of enzyme and DMSO mix into 10 μl of detection mix followed by addition of 2 μl of L-Arginine (MAX inhibition=0% activity). To calculate the percent activity, Equation 1 was used. Abs570nm is the value at a given compound concentration:
A counter-screen was performed to identify any inhibition of the coupling enzymes by the test compounds. 10 μl of 0.26 mM of urea with varying concentrations of compounds in 10 mM sodium phosphate, pH 7.4, 0.1 mM MnCl2 and 2% DMSO were added into 10 μl of detection mix in place of the arginase enzymatic reaction mix. Absorption was monitored at 570 nm as described above. The values of a no substrate blank (without urea; MAX inhibition=0% activity) and a DMSO blank (MIN inhibition=100% activity) were used as positive and negative controls respectively. […] Inactivity in the counter-screen was used to confirm that results accurately reflected IC50 values for ARG1 and ARG2.

IC50 [nM]	Compound
< 100	CN[C@@]1(C(=O)O)c2cc(C(C)(C)CN)c(F)cc2C[C@@H]1CCCB(O)O
< 100	CN[C@@]1(C(=O)O)c2cc(C3(N)CCCCC3)c(F)cc2C[C@@H]1CCCB(O)O
100 to 1000	CN[C@@]1(C(=O)O)c2cc(CN3CC(F)(F)C3)c(Cl)cc2C[C@@H]1CCCB(O)O
< 100	CN[C@@]1(C(=O)O)c2cccc(CN)c2C[C@@H]1CCCB(O)O
> 1000	N#Cc1ccc2c(c1)[C@@](N)(C(=O)O)[C@@H](CCCB(O)O)C2
100 to 1000	CN[C@@]1(C(=O)O)c2cc(CO)c(Cl)cc2C[C@@H]1CCCB(O)O
< 100	CN[C@@]1(C(=O)O)c2cc(C(C)(C)N)c(Cl)cc2C[C@@H]1CCCB(O)O
100 to 1000	CN[C@@]1(C(=O)O)c2cc(-c3cccnc3)c(F)cc2C[C@@H]1CCCB(O)O
100 to 1000	CN[C@@]1(C(=O)O)c2cc(-c3ncccc3C)c(F)cc2C[C@@H]1CCCB(O)O
< 100	CN[C@@]1(C(=O)O)c2cc([C@H](N)C(C)C)c(F)cc2C[C@@H]1CCCB(O)O
< 100	CN[C@@]1(C(=O)O)c2cc(Cl)c(CN)cc2C[C@@H]1CCCB(O)O
